According to PubChem BioAssay (NCI):
Values joined by “and” are separate entries in the source; they are usually repeats but may differ in a detail not shown here. Identical values can stand only once.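 96-well plates; 48 h exposure; 5 concentrations. Endpoints by linear interpolation between flanking doses. Not reached: highest tested concentration assigned. GI50 is the concentration that inhibits growth by half. TGI marks complete inhibition of growth.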

Tests used:
Test in all cases: NCI tumour cell line growth inhibition, 48 h
[1] = system: T-47D breast
[2] = system: SK-MEL-5 melanoma
[3] = system: K-562 leukemia
[4] = system: M14 melanoma
[5] = system: MALME-3M melanoma
[6] = system: TK-10 renal
[7] = system: SK-MEL-28 melanoma
[8] = system: HOP-62 NSCLC
[9] = system: ACHN renal
[10] = system: SR leukemia

N#CC1=C(N)NC(N2CCOCC2)=NC12Nc1ccccc1O2 (centres undefined)
GI50 [1]: 80.3 µM
TGI [1]: > 100 µM
GI50 [2]: 22.7 µM
TGI [2]: > 100 µM
GI50 [3]: 39.2 µM
TGI [3]: > 100 µM
GI50 [4]: 39.6 µM
TGI [4]: > 100 µM
GI50 [5]: > 100 µM
TGI [5]: > 100 µM
GI50 [6]: 34 µM
TGI [6]: > 100 µM
GI50 [7]: > 100 µM
TGI [7]: > 100 µM
GI50 [8]: 14 µM
TGI [8]: 51.3 µM
GI50 [9]: 34 µM
TGI [9]: > 100 µM
GI50 [10]: 27.7 µM
TGI [10]: > 100 µM

FC(F)c1ncc(-c2ccc(C(F)(F)F)cc2)c(NC2CCCCCC2)n1
GI50 [1]: > 10 µM
TGI [1]: > 10 µM
GI50 [2]: > 10 µM
TGI [2]: > 10 µM
GI50 [3]: > 10 µM
TGI [3]: > 10 µM
GI50 [4]: > 10 µM
TGI [4]: > 10 µM
GI50 [5]: > 10 µM
TGI [5]: > 10 µM
GI50 [6]: > 10 µM
TGI [6]: > 10 µM
GI50 [7]: > 10 µM
TGI [7]: > 10 µM
GI50 [8]: > 10 µM
TGI [8]: > 10 µM
GI50 [9]: > 10 µM
TGI [9]: > 10 µM
GI50 [10]: > 10 µM
TGI [10]: > 10 µM

O=S(=O)(/N=S(/Nc1ccccc1)C(F)(F)Cl)c1ccccc1 (centres undefined)
TGI [1]: > 100 µM
TGI [2]: > 100 µM
TGI [3]: > 100 µM
TGI [4]: > 100 µM
TGI [5]: > 100 µM
TGI [6]: > 100 µM
TGI [7]: > 100 µM
TGI [8]: > 100 µM
TGI [9]: > 100 µM
TGI [10]: > 100 µM

CN1CCN(Cc2ccc(NC(=O)c3[nH]ncc3Nc3ncnc4[nH]ccc34)cc2)CC1
GI50 [1]: 0.365 µM
TGI [1]: 18.7 µM
GI50 [2]: 0.25 µM
TGI [2]: 0.778 µM
GI50 [3]: 0.265 µM
TGI [3]: > 100 µM
GI50 [4]: 0.473 µM
TGI [4]: 8.66 µM
GI50 [5]: 0.472 µM
TGI [5]: 0.959 µM
GI50 [6]: 0.562 µM
TGI [6]: 2.37 µM
GI50 [7]: 0.411 µM
TGI [7]: 4.24 µM
GI50 [8]: 0.348 µM
TGI [8]: 3.44 µM
GI50 [9]: 0.322 µM
TGI [9]: 10 µM
GI50 [10]: 0.229 µM
TGI [10]: 0.708 µM

Cc1c(Nc2nccc3cc(CN4CC[C@@H](O)C4)cnc23)cccc1-c1cccc(-c2nc3cc(CN4CC[C@@H](C(=O)O)C4)cc(C#N)c3o2)c1C
GI50 [1]: > 100 µM
TGI [1]: > 100 µM
GI50 [2]: 10.2 µM
TGI [2]: 22.7 µM
GI50 [3]: 1.44 µM
TGI [3]: > 100 µM
GI50 [4]: 5.82 µM
TGI [4]: 20.3 µM
GI50 [5]: 4.35 µM
TGI [5]: 23.2 µM
GI50 [6]: 20.5 µM
TGI [6]: > 100 µM
GI50 [7]: 11.6 µM
TGI [7]: 27.8 µM
GI50 [8]: > 100 µM
TGI [8]: > 100 µM
GI50 [9]: 91.7 µM
TGI [9]: > 100 µM
GI50 [10]: 2.95 µM
TGI [10]: 24.7 µM

CCCCC#Cc1c(I)n(C2OC(CO[Si](C)(C)C(C)(C)C)C3OC(C)(C)OC32)c(=O)n(C(=O)c2ccccc2)c1=O (centres undefined)
GI50 [1]: 4.14 µM
TGI [1]: 19.7 µM
GI50 [2]: 14.2 µM
TGI [2]: 27.2 µM
GI50 [3]: 15 µM
TGI [3]: 36.2 µM
GI50 [4]: 1.6 µM
TGI [4]: 3.3 µM
GI50 [5]: 2.5 µM
TGI [5]: 4.91 µM
GI50 [6]: 1.78 µM
TGI [6]: 3.19 µM
GI50 [7]: 6.94 µM
TGI [7]: 22.5 µM
GI50 [8]: 10.7 µM
TGI [8]: 23 µM
GI50 [9]: 3 µM
TGI [9]: > 100 µM
GI50 [10]: 1.69 µM
TGI [10]: 9.35 µM

Cc1ccc2oc(=O)c3c(O)c4cccc(OC5OC(C)C6O[C@@H](c7ccccc7)OC6C5OC5OC(C)C(O)C(O)C5O)c4c4oc(=O)c1c2c34 (some centres undefined)
TGI [1]: 1.23 µM
GI50 [2]: 0.114 µM
TGI [2]: 1.09 µM and 0.7 µM
GI50 [3]: 0.0708 µM
TGI [3]: 2.6 µM
GI50 [4]: 0.409 µM
TGI [4]: 1.85 µM and 1.64 µM
GI50 [5]: 0.126 µM
TGI [5]: 1.58 µM and 2.52 µM
GI50 [6]: 0.461 µM
TGI [6]: 3.81 µM and 8.95 µM
GI50 [7]: 0.331 µM
TGI [7]: 1.88 µM and 2.01 µM
GI50 [8]: 0.105 µM
TGI [8]: 1.6 µM and 0.734 µM
GI50 [9]: 0.0559 µM
TGI [9]: 1.14 µM and 0.439 µM
GI50 [10]: 0.0174 µM
TGI [10]: < 0.0472 µM

Cc1nn(C)c2ncnc(N/N=C/c3cccc(O)c3O)c12
GI50 [1]: 3.25 µM
TGI [1]: > 100 µM
GI50 [2]: 0.433 µM
TGI [2]: 2.31 µM
GI50 [3]: 0.387 µM
TGI [3]: > 100 µM
GI50 [4]: 0.259 µM
TGI [4]: 1.72 µM
GI50 [5]: 0.52 µM
TGI [5]: 4.7 µM
GI50 [6]: 2.64 µM
TGI [6]: > 100 µM
GI50 [7]: 0.455 µM
TGI [7]: > 100 µM
GI50 [8]: 1.08 µM
TGI [8]: 15.1 µM
GI50 [9]: 0.338 µM
TGI [9]: > 32.3 µM
GI50 [10]: 0.269 µM
TGI [10]: 16.3 µM
